Measurements from US8394848B2, “Compounds that modulate intracellular calcium” (Calcimedica, Inc., priority 2008, dated 2013).

What follows are molecules tested on JR251 or RBL cells (assay: Store-operated calcium entry, either JR251 or RBL cells, or both).
Assay type: cell-based
Procedure: The day prior to performing the assay, RBL-2H3 cells are plated in 50 μL of complete medium in a 384 well plate. Cells are grown at 37° C./6% CO2 overnight and grow to 50-60% confluence by the next day. On the assay day, 1.5 μM Fluo-4-AM dye (Invitrogen) in complete medium is added and incubated for 1 hour at RT. Cells are washed twice in Ca^2+-free HBSS buffer and 35 μL Ca^2+-free HBSS buffer is added to each well. 10 μL of a test compound prepared in a Ca^2+-free HBSS solution at 4.5× of the desired concentration is added to a well and incubated for 5 minutes at RT. 10 μL of thapsigargin prepared in a Ca^2+-free HBSS solution at 5.5× of the desired concentration (5.5 uM) is added to each well and incubated for an additional 25 minutes. The initial baseline fluorescence signal is measured with a FLIPR^384 (Molecular Devices) plate reader. 5 μL of 12× calcium in HBSS (12 mM) is added and changes in cellular fluorescence are measured with the FLIPR^384 plate reader. In each well, the change in the fluorescent signal as a function of time due to calcium entry into the cell is determined by calculating the difference between the fluorescent signal measured 7 seconds after calcium addition and the initial baseline fluorescence signal at time zero (t=0). This parameter is designated Upslope. The IC50 value is calculated as the concentration at which 50% of the Upslope is inhibited.
Molecule `O=C(Nc1scc(-c2ccc(Br)cc2)c1C(=O)O)c1cc2occc2[nH]1` [4-(4-bromophenyl)-2-(4H-furo[3,2-b]pyrrole-5-carboxamido)thiophene-3-carboxylic acid] has an IC50 of less than 10 µM.
`O=C(CCc1cccc(Cl)c1)Nc1scc(-c2ccc(Cl)cc2)c1C(=O)O` [4-(4-chlorophenyl)-2-(3-(3-chlorophenyl)propanamido)thiophene-3-carboxylic acid] was tested, and the IC50 was less than 10 µM.
In the case of `Cc1cccc2oc(C(=O)Nc3scc(-c4ccc(Cl)cc4)c3C(=O)O)nc12` [4-(4-chlorophenyl)-2-(4-methylbenzo[d]oxazole-2-carboxamido)thiophene-3-carboxylic acid], the IC50 is reported as less than 10 µM.
`Cc1ccc(-c2csc(NC(=O)c3cnc4ccccc4n3)c2C(=O)O)c(F)c1F` [4-(2,3-difluoro-4-methylphenyl)-2-(quinoxaline-2-carboxamido)thiophene-3-carboxylic acid] gave an IC50 of less than 10 µM.
With `Cc1ccsc1C(=O)Nc1scc(-c2ccc(Cl)cc2)c1C(=O)O` [4-(4-chlorophenyl)-2-(3-methylthiophene-2-carboxamido)thiophene-3-carboxylic acid] the IC50 was less than 10 µM.
With `Cc1cc(Cl)ccc1-c1csc(NC(=O)c2nc3ccccc3o2)c1C(=O)O` [2-(benzo[d]oxazole-2-carboxamido)-4-(4-chloro-2-methylphenyl)thiophene-3-carboxylic acid] the IC50 was less than 10 µM.
`O=C(Nc1scc(-c2ccc(Br)cc2)c1C(=O)O)c1nc2c(F)cccc2o1` [4-(4-bromophenyl)-2-(4-fluorobenzo[d]oxazole-2-carboxamido)thiophene-3-carboxylic acid] gave an IC50 of less than 10 µM.
In the case of `O=C(Nc1scc(-c2ccc(Br)cc2)c1C(=O)O)c1ccncc1` [4-(4-bromophenyl)-2-(isonicotinamido)thiophene-3-carboxylic acid], the IC50 is reported as less than 10 µM.
`Cc1ccc(-c2csc(NC(=O)c3nc4cccc(Br)c4o3)c2C(=O)O)c(F)c1F` [2-(7-bromobenzo[d]oxazole-2-carboxamido)-4-(2,3-difluoro-4-methylphenyl)thiophene-3-carboxylic acid] gave an IC50 of less than 10 µM.
`O=C(Nc1scc(-c2ccc(F)c(O)c2F)c1C(=O)O)c1cc2ccccc2o1` [2-(benzofuran-2-carboxamido)-4-(2,4-difluoro-3-hydroxyphenyl)thiophene-3-carboxylic acid] gave an IC50 of less than 10 µM.
`O=C(Nc1scc(-c2cc3cccc(O)c3o2)c1C(=O)O)c1nc2ccccc2s1` [2-(benzo[d]thiazole-2-carboxamido)-4-(7-hydroxybenzofuran-2-yl)thiophene-3-carboxylic acid] showed an IC50 of less than 10 µM.
In the case of `O=C(O)c1c(-c2ccc(Cl)cc2)csc1NC(=O)C1Cc2ccc([N+](=O)[O-])cc2C1` (centres unmarked) [4-(4-chlorophenyl)-2-(5-nitro-2,3-dihydro-1H-indene-2-carboxamido)thiophene-3-carboxylic acid], the IC50 is reported as less than 10 µM.
In the case of `O=C(Nc1scc(-c2ccc(Cl)cc2)c1C(=O)O)c1ccno1` [4-(4-chlorophenyl)-2-(isoxazole-5-carboxamido)thiophene-3-carboxylic acid], the IC50 is reported as less than 10 µM.
`O=C(Nc1scc(-c2ccc(Cl)cc2)c1C(=O)O)c1nc2ccccc2[nH]1` [2-(1H-benzo[d]imidazole-2-carboxamido)-4-(4-chlorophenyl)thiophene-3-carboxylic acid] showed an IC50 of less than 10 µM.
For `CC(CC(=O)Nc1scc(-c2ccc(Cl)cc2)c1C(=O)O)c1ccccc1` (centres unmarked) [4-(4-chlorophenyl)-2-(3-phenylbutanamido)thiophene-3-carboxylic acid], the IC50 was less than 10 µM.
In the case of `Cc1cc(F)c(-c2csc(NC(=O)c3cc4ccccc4o3)c2C(=O)O)cc1Cl` [2-(benzofuran-2-carboxamido)-4-(5-chloro-2-fluoro-4-methylphenyl)thiophene-3-carboxylic acid], the IC50 is reported as less than 10 µM.
In the case of `O=C(O)c1c(-c2ccc(Cl)cc2)csc1NC(=O)C1Cc2c(F)cccc2S1` (centres unmarked) [4-(4-chlorophenyl)-2-(4-fluoro-2,3-dihydrobenzo[b]thiophene-2-carboxamido)thiophene-3-carboxylic acid], the IC50 is reported as less than 10 µM.
`O=C(CCc1ccc(F)cc1F)Nc1scc(-c2ccc(Cl)cc2)c1C(=O)O` [4-(4-chlorophenyl)-2-(3-(2,4-difluorophenyl)propanamido)thiophene-3-carboxylic acid] gave an IC50 of less than 10 µM.
In the case of `O=C(CCc1ccco1)Nc1scc(-c2ccc(Cl)cc2)c1C(=O)O` [4-(4-chlorophenyl)-2-(3-(furan-2-yl)propanamido)thiophene-3-carboxylic acid], the IC50 is reported as less than 10 µM.
For `O=C(Nc1scc(-c2cc3ccc(Br)cc3o2)c1C(=O)O)c1cc2ccccc2o1` [2-(benzofuran-2-carboxamido)-4-(6-bromobenzofuran-2-yl)thiophene-3-carboxylic acid], the IC50 was less than 10 µM.
For `O=C(Nc1scc(-c2ccc(Br)cc2)c1C(=O)O)c1ccc2nnsc2c1` [2-(benzo[d][1,2,3]thiadiazole-6-carboxamido)-4-(4-bromophenyl)thiophene-3-carboxylic acid], the IC50 was less than 10 µM.
`COc1cccc(CCC(=O)Nc2scc(-c3ccc(Br)cc3)c2C(=O)O)c1` [4-(4-bromophenyl)-2-(3-(3-methoxyphenyl)propanamido)thiophene-3-carboxylic acid] was tested, and the IC50 was less than 10 µM.
`O=C(Nc1scc(/C=C/c2ccc(F)cc2)c1C(=O)O)c1cc2ccccc2o1` [(E)-2-(benzofuran-2-carboxamido)-4-(4-fluorostyryl)thiophene-3-carboxylic acid] was tested, and the IC50 was less than 10 µM.
For `COc1cc(F)c(-c2csc(NC(=O)c3cc4ccccc4o3)c2C(=O)O)cc1F` [2-(benzofuran-2-carboxamido)-4-(2,5-difluoro-4-methoxyphenyl)thiophene-3-carboxylic acid], the IC50 was less than 10 µM.
For `O=C(Cc1coc2ccccc12)Nc1scc(-c2ccc(Br)cc2)c1C(=O)O` [2-(2-(benzofuran-3-yl)acetamido)-4-(4-bromophenyl)thiophene-3-carboxylic acid], the IC50 was less than 10 µM.
In the case of `O=C(Nc1scc(-c2ccc(Cl)cc2)c1C(=O)O)c1nnc2ccccc2n1` [2-(benzo[e][1,2,4]triazine-3-carboxamido)-4-(4-chlorophenyl)thiophene-3-carboxylic acid], the IC50 is reported as less than 10 µM.
In the case of `O=C(Nc1scc(-c2ccc(Br)cc2)c1C(=O)O)c1nc2cccc(F)c2o1` [4-(4-bromophenyl)-2-(7-fluorobenzo[d]oxazole-2-carboxamido)thiophene-3-carboxylic acid], the IC50 is reported as less than 10 µM.
Molecule `O=C(Nc1scc(-c2ccc(Cl)cc2)c1C(=O)O)c1ccncc1` [4-(4-chlorophenyl)-2-(isonicotinamido)thiophene-3-carboxylic acid] has an IC50 of less than 10 µM.
`COc1cc(C(F)(F)F)ccc1-c1csc(NC(=O)c2nc3ccccc3o2)c1C(=O)O` [2-(benzo[d]oxazole-2-carboxamido)-4-(2-methoxy-4-(trifluoromethyl)phenyl)thiophene-3-carboxylic acid] showed an IC50 of less than 10 µM.
In the case of `Cc1ccc(-c2csc(NC(=O)c3cc(C)n(C)n3)c2C(=O)O)cc1` [2-(1,5-dimethyl-1H-pyrazole-3-carboxamido)-4-p-tolylthiophene-3-carboxylic acid], the IC50 is reported as less than 10 µM.
With `Cc1ccc(-c2csc(NC(=O)c3cc4c(Cl)cc(Cl)cc4[nH]3)c2C(=O)O)cc1` [2-(4,6-dichloro-1H-indole-2-carboxamido)-4-p-tolylthiophene-3-carboxylic acid] the IC50 was less than 10 µM.
With `O=C(Nc1scc(-c2ccc(Cl)c(F)c2)c1C(=O)O)c1nc2cccc(F)c2o1` [4-(4-chloro-3-fluorophenyl)-2-(7-fluorobenzo[d]oxazole-2-carboxamido)thiophene-3-carboxylic acid] the IC50 was less than 10 µM.
For `O=Cc1sccc1OCC(=O)Nc1scc(-c2ccc(Cl)cc2)c1C(=O)O` [4-(4-chlorophenyl)-2-(2-(2-formylthiophen-3-yloxy)acetamido)thiophene-3-carboxylic acid], the IC50 was less than 10 µM.
Work on `COc1ccc(CCC(=O)Nc2scc(-c3ccc(Br)cc3)c2C(=O)O)cc1` [4-(4-bromophenyl)-2-(3-(4-methoxyphenyl)propanamido)thiophene-3-carboxylic acid] yielded an IC50 of less than 10 µM.
With `Cc1ccsc1C(=O)Nc1scc(-c2cccc(Cl)c2)c1C(=O)O` [4-(3-chlorophenyl)-2-(3-methylthiophene-2-carboxamido)thiophene-3-carboxylic acid] the IC50 was less than 10 µM.
In the case of `N#Cc1cccc2nc(C(=O)Nc3scc(-c4ccc(Cl)cc4)c3C(=O)O)oc12` [4-(4-chlorophenyl)-2-(7-cyanobenzo[d]oxazole-2-carboxamido)thiophene-3-carboxylic acid], the IC50 is reported as less than 10 µM.
`Cc1ccc(-c2csc(NC(=O)c3cccs3)c2C(=O)O)cc1` [2-(thiophene-2-carboxamido)-4-p-tolylthiophene-3-carboxylic acid] gave an IC50 of less than 10 µM.
In the case of `Cc1cc(C(F)(F)F)ccc1-c1csc(NC(=O)c2nc3ccccc3o2)c1C(=O)O` [2-(benzo[d]oxazole-2-carboxamido)-4-(2-methyl-4-(trifluoromethyl)phenyl)thiophene-3-carboxylic acid], the IC50 is reported as less than 10 µM.
With `Cn1cnc(C(=O)Nc2scc(-c3ccc(Cl)cc3)c2C(=O)O)c1` [4-(4-chlorophenyl)-2-(1-methyl-1H-imidazole-4-carboxamido)thiophene-3-carboxylic acid] the IC50 was less than 10 µM.
`Cc1oc(-c2ccccc2)cc1C(=O)Nc1scc(-c2ccc(Cl)cc2)c1C(=O)O` [4-(4-chlorophenyl)-2-(2-methyl-5-phenylfuran-3-carboxamido)thiophene-3-carboxylic acid] was tested, and the IC50 was less than 10 µM.
In the case of `Cc1ccc(-c2csc(NC(=O)c3ccsc3)c2C(=O)O)cc1C` [4-(3,4-dimethylphenyl)-2-(thiophene-3-carboxamido)thiophene-3-carboxylic acid], the IC50 is reported as less than 10 µM.
